Test results published in EP0406122A1, “Process for obtaining a native, wild-type human oestrogen receptor and its applications” (ASSOCIATION POUR LE DEVELOPPEMENT DE LA RECHERCHE EN …, priority 1989, dated 1991).

Target: T1, hER Gly-400 (HEGO) (Homo sapiens, UniProt P03372)
T1 construct: expressed in transfected cells; host or cells: HeLa
T1 sequence (P03372 1-595): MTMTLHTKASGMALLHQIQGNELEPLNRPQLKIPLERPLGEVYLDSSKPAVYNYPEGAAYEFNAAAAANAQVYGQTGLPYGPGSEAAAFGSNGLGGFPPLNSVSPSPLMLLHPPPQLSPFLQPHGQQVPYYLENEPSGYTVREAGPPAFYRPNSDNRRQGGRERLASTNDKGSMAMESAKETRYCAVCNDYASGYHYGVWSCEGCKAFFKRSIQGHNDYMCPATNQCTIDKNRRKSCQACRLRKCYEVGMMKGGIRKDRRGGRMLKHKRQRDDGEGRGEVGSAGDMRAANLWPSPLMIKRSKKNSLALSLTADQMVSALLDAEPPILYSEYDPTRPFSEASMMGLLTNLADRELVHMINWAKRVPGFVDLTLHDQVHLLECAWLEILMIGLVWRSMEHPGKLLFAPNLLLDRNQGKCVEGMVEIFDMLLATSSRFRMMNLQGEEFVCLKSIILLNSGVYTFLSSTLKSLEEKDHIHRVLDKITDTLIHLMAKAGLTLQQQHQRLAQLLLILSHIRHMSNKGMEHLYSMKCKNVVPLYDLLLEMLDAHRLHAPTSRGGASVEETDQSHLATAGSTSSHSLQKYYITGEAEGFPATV
Assay: transcription activation, vit-tk-CAT reporter in HeLa cells transfected with HEGO
Format: cell-based, humain
Conditions: 10⁻⁷ M ICI 164,384 in the presence of 10⁻⁸ M oestradiol, CAT activity
Procedure: On a transfecté des cellules Hela avec 50 ng de vecteurs d'expression de Er humain ou de Er de poulet comme indiqué, conjointement avec 1 µg de plasmide "reporter" vit-tk-cat, et le plasmide pCH 110 de contrôle interne de l'expression de la béta-galactosidase (3µg) et de l'ADN transporteur (Bluescribe M13+) pour un total de 20 µg d'ADN.
• A) Des cellules HeLa ont été transfectées avec 10 ng des vecteurs d'expression de l'hER correspondant, HEO (colonnes 1-5), ou HEGO (colonnes 6-10), conjointement avec 1 µG de plasmide "reporter" vit-tk-CAT, 3 µG du plasmide de contrôle de la béta-galactosidase pCH110 et avec de l'ADN Bluescribe M13+ pour un total d'ADN de 20 µg. […] 2 heures plus tard on a récolté les cellules […] et un dosage de la béta-galactosidase a été effectué.

Compound: CCCCN(C)C(=O)CCCCCCCCCC[C@@H]1Cc2cc(O)ccc2[C@H]2CC[C@]3(C)[C@@H](O)CC[C@H]3[C@H]12 [ICI 164,384]
- effet sur l'induction à l'oestradiol: très peu d'effet
